ChEMBL document CHEMBL1201862, “PubChem BioAssay data set” (2004)
Activity calls are given as the source filed them.

Columns and labels:
[1] = molecular target: T1, Rac GTPase-activating protein 1 (Homo sapiens, UniProt Q9H0H5); assay: MgcRacGAP GTPase-activating activity inhibitors, confirmation, biochemical, ADP Hunter fluorescence, primary and confirmatory (AID 624330); assay type: functional
T1 sequence (Q9H0H5 whole entry): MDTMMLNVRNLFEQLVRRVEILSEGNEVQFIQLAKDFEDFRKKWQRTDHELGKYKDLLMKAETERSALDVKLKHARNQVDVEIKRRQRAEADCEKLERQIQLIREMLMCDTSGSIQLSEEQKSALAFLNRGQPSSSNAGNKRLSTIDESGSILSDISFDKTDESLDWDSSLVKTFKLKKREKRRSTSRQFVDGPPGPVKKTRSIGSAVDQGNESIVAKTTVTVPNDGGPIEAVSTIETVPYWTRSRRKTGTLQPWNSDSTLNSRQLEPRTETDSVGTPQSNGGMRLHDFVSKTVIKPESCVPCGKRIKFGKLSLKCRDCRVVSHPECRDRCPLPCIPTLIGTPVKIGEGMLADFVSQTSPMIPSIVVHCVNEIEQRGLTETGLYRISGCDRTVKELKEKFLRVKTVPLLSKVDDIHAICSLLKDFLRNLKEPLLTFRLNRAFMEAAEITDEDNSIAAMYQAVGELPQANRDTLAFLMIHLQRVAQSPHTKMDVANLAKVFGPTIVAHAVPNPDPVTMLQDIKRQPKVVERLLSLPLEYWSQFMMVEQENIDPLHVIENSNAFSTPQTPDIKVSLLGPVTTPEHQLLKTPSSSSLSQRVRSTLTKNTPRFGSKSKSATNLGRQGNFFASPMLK

H4 = assay: Luminescence Cell-Based Dose Response HTS to Identify Activators of 5'UTR Stem-Loop Driven Prion Protein mRNA Translation in H4 Neuroglioblastoma Cells. [Related pubchem assays: 1829 (Project Summary), 1814 (Primary HTS)]; assay type: functional; details: Homo sapiens
[2] = Luminescence Cell-Based Dose Response HTS to Identify Activators of Luciferase Translation or Activity in H4 […] Cells. [Related pubchem assays: 1829 (Project Summary), 1814 (Primary HTS)]; assay type: functional
[3] = growth suppression of PTEN-null colon cells, dose response, cell-based, HCT116 PTEN knockout (AID 1047); assay type: functional;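 further: HCT116 colon tumor cells with PTEN knocked out; cells exposed to compound for 60 hours before readout; potency for loss of cell viability measured by luminescence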
[4] = Luminescence Cell-Based Dose Retest to Confirm Inhibitors of Cancer Stem Cells. [Related pubchem assays (depositor defined):AID2717, AID2721]; assay type: functional; details: Homo sapiens
[5] = growth suppression of beta-catenin-knockout colon cells, dose response, cell-based, HCT116, human colon tumor (AID 1045); assay type: functional;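 further: HCT116 colon tumor cells with beta catenin knocked out; cells exposed to compound for 60 hours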
cells = assay type: functional
Protein RecA = molecular target: T2, Protein RecA (Mycobacterium tuberculosis, UniProt P9WHJ3); assay: Fluorescence Cell-Free Homogeneous Dose Retest to Identify Inhibitors of RecA-Intein Splicing Activity. [Related pubchem assays (depositor defined):AID2097, AID2223, AID489010, AID492950]; assay type: functional
T2 sequence (P9WHJ3 whole entry): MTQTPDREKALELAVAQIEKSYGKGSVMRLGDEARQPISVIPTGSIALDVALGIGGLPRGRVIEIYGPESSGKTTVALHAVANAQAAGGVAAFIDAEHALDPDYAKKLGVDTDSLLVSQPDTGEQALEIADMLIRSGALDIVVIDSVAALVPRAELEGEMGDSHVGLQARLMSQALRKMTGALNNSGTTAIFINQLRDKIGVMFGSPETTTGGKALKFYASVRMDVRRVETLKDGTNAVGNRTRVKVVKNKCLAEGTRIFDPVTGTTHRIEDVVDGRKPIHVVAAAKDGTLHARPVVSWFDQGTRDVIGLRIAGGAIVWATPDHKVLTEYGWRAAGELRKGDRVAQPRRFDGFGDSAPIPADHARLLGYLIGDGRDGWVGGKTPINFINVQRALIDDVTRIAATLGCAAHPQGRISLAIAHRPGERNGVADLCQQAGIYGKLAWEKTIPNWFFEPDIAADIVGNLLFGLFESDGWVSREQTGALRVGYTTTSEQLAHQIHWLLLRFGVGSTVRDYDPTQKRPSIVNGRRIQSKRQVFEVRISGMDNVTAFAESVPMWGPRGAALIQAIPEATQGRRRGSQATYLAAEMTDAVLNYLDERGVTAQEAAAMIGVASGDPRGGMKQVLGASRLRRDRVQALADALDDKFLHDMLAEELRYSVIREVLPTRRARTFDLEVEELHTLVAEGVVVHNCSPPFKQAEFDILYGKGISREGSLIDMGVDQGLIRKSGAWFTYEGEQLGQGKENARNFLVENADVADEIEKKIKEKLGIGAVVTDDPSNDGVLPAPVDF

[6] = molecular target: T3, Replicative DNA helicase DnaB (Mycobacterium tuberculosis, UniProt P9WMR3); assay: DnaB intein splicing inhibitors, dose response, biochemical, cell-free fluorescence (AID 449749); assay type: functional
T3 sequence (P9WMR3 whole entry): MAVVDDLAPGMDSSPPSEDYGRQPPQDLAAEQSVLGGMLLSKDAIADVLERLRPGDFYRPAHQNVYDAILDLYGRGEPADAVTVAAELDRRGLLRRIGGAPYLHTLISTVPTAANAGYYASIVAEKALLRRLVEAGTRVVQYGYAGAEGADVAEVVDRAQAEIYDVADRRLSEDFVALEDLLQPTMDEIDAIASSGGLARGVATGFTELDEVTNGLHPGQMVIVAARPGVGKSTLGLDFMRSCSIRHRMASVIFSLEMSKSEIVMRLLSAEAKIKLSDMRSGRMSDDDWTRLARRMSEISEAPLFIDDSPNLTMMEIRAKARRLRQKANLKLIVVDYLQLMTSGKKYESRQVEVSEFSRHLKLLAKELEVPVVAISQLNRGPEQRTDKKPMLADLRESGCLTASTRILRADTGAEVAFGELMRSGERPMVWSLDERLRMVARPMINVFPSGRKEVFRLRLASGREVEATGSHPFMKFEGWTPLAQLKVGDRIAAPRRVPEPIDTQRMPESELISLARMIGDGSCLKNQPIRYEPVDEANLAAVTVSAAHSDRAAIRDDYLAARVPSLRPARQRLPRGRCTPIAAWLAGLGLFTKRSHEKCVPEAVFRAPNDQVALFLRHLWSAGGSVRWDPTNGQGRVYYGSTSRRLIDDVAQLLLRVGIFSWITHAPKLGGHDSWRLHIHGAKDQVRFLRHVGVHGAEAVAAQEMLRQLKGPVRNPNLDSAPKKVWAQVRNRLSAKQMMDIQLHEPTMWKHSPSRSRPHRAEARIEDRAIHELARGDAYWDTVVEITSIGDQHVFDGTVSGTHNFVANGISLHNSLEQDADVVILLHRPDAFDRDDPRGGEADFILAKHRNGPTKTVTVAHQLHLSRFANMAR

[7] = inhibitors of intracellular T. cruzi replication, confirmation, NIH3T3 host cells, beta-gal luminescence (AID 2044); assay type: functional, cell-based;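 further: intracellular parasites grown in NIH/3T3 mouse fibroblasts as host cells; luminescent beta-galactosidase reporter signal from transgenic T. cruzi replicating inside host cells; inhibitors lower the luminescence signal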
[8] = NIH-3T3 fibroblast cytotoxicity, dose response, cytotoxicity control, cell-based, fluorescence, Alamar Blue, secondary assay (AID 2327); assay type: functional;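 further: NIH-3T3 mouse fibroblasts cultured with fluconazole at 8 µg/mL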
[9] = cytotoxicity toward NIH3T3 fibroblasts, dose response, counter-screen, cell-based, ATP luminescence, mouse fibroblasts (AID 2010); assay type: functional;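 further: cells exposed to compound for about 90 hours before reading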
Streptokinase A = molecular target: T4, Streptokinase A (Streptococcus pyogenes serotype M1, UniProt P10520); assay: S. pyogenes streptokinase expression inhibitors, potency, dose response, plasminogen activation absorbance, OD405 (AID 1914); assay type: functional, Streptococcus pyogenes M1 GAS;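 further: secreted streptokinase activity via plasminogen activation per viability signal from cell pellet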
T4 sequence (P10520 whole entry): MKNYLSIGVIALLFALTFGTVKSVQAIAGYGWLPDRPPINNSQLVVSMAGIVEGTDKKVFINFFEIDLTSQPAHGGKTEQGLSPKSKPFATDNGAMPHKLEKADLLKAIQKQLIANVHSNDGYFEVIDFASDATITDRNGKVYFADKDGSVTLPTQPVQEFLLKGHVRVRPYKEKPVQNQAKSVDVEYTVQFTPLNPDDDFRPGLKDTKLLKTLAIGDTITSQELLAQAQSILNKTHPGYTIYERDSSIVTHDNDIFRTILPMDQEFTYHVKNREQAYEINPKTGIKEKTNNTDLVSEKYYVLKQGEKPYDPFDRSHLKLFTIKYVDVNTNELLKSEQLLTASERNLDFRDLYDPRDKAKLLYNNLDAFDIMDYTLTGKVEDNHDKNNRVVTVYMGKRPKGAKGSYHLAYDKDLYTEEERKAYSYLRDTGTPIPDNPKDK

Streptococcus = assay: Group A Streptococcus viability loss, dose response, counter-screen for streptokinase expression inhibitor project, luminescence, BacTiterGlo (AID 1915); assay type: functional, organism-based;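 further: potency for reduction of bacterial viability or growth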
[10] = test system: Streptococcus sp. 'group A'; assay: growth inhibition of control SK(-) GAS strain, dose response, counter-screen for streptokinase expression inhibitor project, luminescence, kanamycin, BacTiterGlo, confirmation (AID 1900); assay type: functional, organism-based

## COc1ccccc1N1CCN(CCCOc2ccc(F)cc2)CC1
[1]
  IC50: 122 µM (active)

## c1ccc(CSc2nnc(-c3c[nH]c4ccccc34)o2)cc1
H4
  EC50: 70.2 µM (active)
[2]
  EC50: 28.7 µM (active)

## COc1ccc(-c2cc3ccccc3n2CC(O)CN2CCCCC2)cc1 (stereo unspecified)
[1]
  IC50: 110 µM (active)

## COc1ccc(-c2csc(NC(=S)NC(=O)/C=C/c3ccco3)n2)cc1OC
[3]
  EC50: 1.62 µM (active)
[4]
  AC50: 853 nM (active)
[5]
  EC50: 3.11 µM (active)

## N#CC(C(=O)NCc1ccco1)c1nc2ccccc2nc1N1CCOCC1 (stereo unspecified)
cells
  IC50: 49 µM (active)

## CCCc1nc(SCC(=O)N2CCc3ccccc3C2)c2ccccc2n1
Protein RecA
  EC50: 14.6 µM (active)
[6]
  AC50: 14.1 µM (active)

## CN(C)/C=C/C(=O)c1ccc2noc(-c3ccc(F)cc3)c2c1
Protein RecA
  EC50: > 380 µM (inactive)
[6]
  AC50: > 380 µM (inactive)

## O=C(Nc1cc2c3c(c1)C1CCCC1CN3CC1CCCC21)c1ccccc1 (stereo unspecified)
[7]
  EC50: 780 nM (active)
[8]
  EC50: > 160 µM (inactive)
[9]
  EC50: > 60 µM (not active)

## CC1(C)N=C(SCC(=O)Nc2ccc(Cl)cc2Cl)C(c2ccccc2)=N1
Protein RecA
  EC50: 17.7 µM (active)
[6]
  AC50: 10.7 µM (active)

## O=C(NCc1cccnc1)NC1(C(F)(F)F)Oc2ccccc2O1
[3]
  EC50: 25.1 µM (active)
[5]
  EC50: 23.3 µM (active)

## CCOc1cc(N2CCOCC2)c(OCC)cc1NC(=O)Cc1ccccc1OC
[3]
  EC50: 23.9 µM (active)
[5]
  EC50: 21.2 µM (active)

## CCCSc1nc(O)c2cnn(-c3ccc(C)cc3)c2n1
[3]
  EC50: 22.2 µM (active)
[5]
  EC50: 20.7 µM (active)

## Cc1ccc2oc(=O)c3cc(C(=O)NCCCN4CCCCCC4)sc3c2c1
cells
  IC50: > 50 µM (active)

## COc1cccc(C(=O)OCC(=O)Nc2nnc(-c3ccccc3)o2)c1
Streptokinase A
  EC50: > 150 µM (not active)
Streptococcus
  EC50: 60.9 µM (active)
[10]
  EC50: 7.55 µM (active)
cells
  IC50: 14.8 µM (active)

## CCn1c(CC(=O)Nc2ccc(C)c(Cl)c2)nnc1SCC(=O)Nc1nc(C)cs1
[3]
  EC50: 25.4 µM (active)
[5]
  EC50: 27.2 µM (active)

## Cn1cc(C(=O)NCCN2CCN(c3cccc(Cl)c3)CC2)c2c3ccccc3n(C)c2c1=O
[3]
  EC50: 46.8 µM (active)
[5]
  EC50: 63 µM (active)

## COC(=O)COc1ccc2c(=O)c(-c3ccccc3)coc2c1
cells
  IC50: < 0.1 µM (active)

## Nc1ccccc1Nc1ccccc1
[1]
  IC50: 36.1 µM (active)
cells
  IC50: 1.28 µM (active)

## COc1ccc(NC2CCCN(C(=O)CCC3=NNC(=O)CC3)C2)cc1 (stereo unspecified)
[1]
  IC50: 126 µM (active)

## Cc1ccc(C)c(NS(=O)(=O)c2ccc3c(c2)Cc2cc(S(=O)(=O)Nc4cc(C)ccc4C)ccc2-3)c1
[3]
  EC50: 9.63 µM (active)
[5]
  EC50: 11.2 µM (active)

## Cc1ccc(-n2c(=S)[nH]c3sc4c(c3c2=O)CCC4)cc1
[1]
  IC50: 85.6 µM (active)

## Cc1cccc(NC(=O)COC(=O)CCc2c[nH]c3ccccc23)c1
cells
  IC50: 0.71 µM (active)

## CC1=NNC(=O)C1Br (stereo unspecified)
[1]
  IC50: 55.9 µM (active)

## Nc1ccc(C(=O)N/N=C/c2ccc(N3CCOCC3)s2)cc1
[1]
  IC50: 16.5 µM (active)

## CCn1nc(C)c(C2C(C#N)=C(N)Oc3[nH]nc(C)c32)c1C (stereo unspecified)
Protein RecA
  EC50: 12.5 µM (active)
[6]
  AC50: 88.9 µM (active)

## CCCCn1c(S)nc2c(=O)n(C)c(=O)n(C)c21
[1]
  IC50: 20.9 µM (active)

## CCN(CC)c1ccc(S(=O)(=O)N2CCOCC2)cc1NC(=O)COC(=O)/C=C/c1ccc(O)c(OC)c1
[1]
  IC50: 108 µM (active)

## CN1/C(=C/C=N/NC(=O)c2ccc([N+](=O)[O-])cc2)C(C)(C)c2ccccc21
[3]
  EC50: 24.3 µM (active)
[5]
  EC50: 23.2 µM (active)

## COc1cc(/C=N/NC(=O)C(=O)Nc2ccccn2)ccc1O
[1]
  IC50: 22.6 µM (active)

## O=C(COc1ccccc1F)N/N=C1\CCCc2ccccc21
H4
  EC50: 53.3 µM (inconclusive)
[2]
  EC50: 24.8 µM (active)
